Results: ChEMBL document CHEMBL1149465, “Identification of isoflavone derivatives as effective anticryptosporidial agents in vitro and in vivo” (J Med Chem, 2006)

How the values were obtained:
[1] = tested on: Cryptosporidium parvum; assay: Antiparasitic activity against Cryptosporidium parvum in HCT8 cells; format: functional, organism-based; settings: HCT-8
[2] = tested on: Meriones unguiculatus; assay: Reduction of oocyst in stools of Cryptosporidium parvum infected gerbils treated with 400 mg/kg at day 12; format: functional; design: scale not given: the % may be the effect or the level left
[3] = tested on: Meriones unguiculatus; assay: Deparasitization of Cryptosporidium parvum infected gerbils treated with 400 mg/kg at day 12; format: functional
[4] = tested on: Meriones unguiculatus; assay: Reduction of oocyst in stools of Cryptosporidium parvum infected gerbils treated with 400 mg/kg at day 8; format: functional; design: scale not given: the % may be the effect or the level left
[5] = tested on: Meriones unguiculatus; assay: Deparasitization of Cryptosporidium parvum infected gerbils treated with 200 mg/kg at day 8; format: functional
[6] = tested on: Meriones unguiculatus; assay: Reduction of oocyst in stools of Cryptosporidium parvum infected gerbils treated with 200 mg/kg at day 8; format: functional; design: scale not given: the % may be the effect or the level left
[7] = tested on: Meriones unguiculatus; assay: Deparasitization of Cryptosporidium parvum infected gerbils treated with 400 mg/kg at day 8; format: functional
[8] = tested on: Meriones unguiculatus; assay: Reduction of oocyst in stools of Cryptosporidium parvum infected gerbils treated with 100 mg/kg at day 8; format: functional; design: scale not given: the % may be the effect or the level left
[9] = tested on: Meriones unguiculatus; assay: Deparasitization of Cryptosporidium parvum infected gerbils treated with 100 mg/kg at day 8; format: functional
[10] = tested on: Trichomonas vaginalis; assay: Antiparasitic activity against Trichomonas vaginalis in […] cells; format: functional, organism-based; settings: UCH-1
[11] = tested on: Plasmodium falciparum; assay: Antiparasitic activity against Plasmodium falciparum T9-96 infected […] cells; format: functional, organism-based

| SMILES | IC50 [1] [µM] | further results |
| --- | --- | --- |
| O=C1c2c(O)cc(O)cc2OCC1c1ccc([N+](=O)[O-])cc1 (stereo not drawn) | 11.7 |  |
| O=C(Cc1cccc(Br)c1)c1c(O)cc(O)cc1O | 17.2 |  |
| O=c1c(-c2cccc([N+](=O)[O-])c2)coc2cc(O)cc(O)c12 | 0.3 |  |
| O=C(Cc1cccc([N+](=O)[O-])c1)c1c(O)cc(O)cc1O | 464 |  |
| CCOC(=O)c1oc2cc(O)cc(O)c2c(=O)c1-c1ccc(Br)cc1 | 0.6 | Activity [2]: 67%; Activity [3]: 13%; Activity [4]: 53.5% |
| CCOC(=O)c1oc2cc(O)cc(O)c2c(=O)c1-c1cccc(Br)c1 | 1.6 | Activity [5]: 60%; Activity [6]: 90.5%; Activity [7]: 60%; Activity [4]: 92% |
| NC[C@@H]1O[C@H](O[C@H]2[C@@H](O)[C@H](O[C@@H]3[C@@H](O)[C@H](N)C[C@H](N)[C@H]3O[C@H]3O[C@H](CO)[C@@H](O)[C@H](O)[C@H]3N)O[C@@H]2CO)[C@H](N)[C@@H](O)[C@@H]1O [PAROMOMYCIN] |  | Activity [8]: 17.6%; Activity [9]: 14% |
| O=C(O)c1oc2cc(O)cc(O)c2c(=O)c1-c1cccc(Br)c1 | 20.1 |  |
| CC(=O)Oc1ccccc1C(=O)Nc1ncc([N+](=O)[O-])s1 [NITAZOXANIDE] | 3.25 | Activity [5]: 14%; Activity [6]: 55% |
| O=c1c(-c2ccc(Br)cc2)coc2cc(O)cc(O)c12 | 1.3 |  |
| CCOC(=O)c1oc2cc(O)cc(O)c2c(=O)c1-c1ccc([N+](=O)[O-])cc1 | 64.1 |  |
| O=C(Cc1ccc([N+](=O)[O-])cc1)c1c(O)cc(O)cc1O | 70.8 |  |
| CCOC(=O)c1oc2cc(O)cc(O)c2c(=O)c1-c1cccc([N+](=O)[O-])c1 | 15.8 |  |
| O=C(Cc1ccc(Br)cc1)c1c(O)cc(O)cc1O | 15.9 |  |
| O=c1c(-c2ccc([N+](=O)[O-])cc2)coc2cc(O)cc(O)c12 | 1.8 | IC50 [10]: 8 µM; IC50 [11]: 20 µM |
| O=c1c(-c2cccc(Br)c2)coc2cc(O)cc(O)c12 | 0.4 |  |
